A short description of data set [1]: Midazolam pharmacokinetics. The data set is classed as in vivo, human.
For data set [2] the following is noted: cited from earlier work.
The format of data set [3] is in vivo, human. Particulars: for Increase of sunitinib exposure by grapefruit juice: model estimate; for AUC(0-t): AUC0–24 h.
For data set [4] the following is noted: cited from earlier work. The source holds these as a separate data set.
A further data set deals with ABCG2. Conditions: in vitro; cited from earlier work.
A further data set has as its system ABCB1. Particulars: in vitro; cited from earlier work.
The subject of data set [5] is organic anion transporting polypeptides (OATPs). Conditions: in vitro; cited from earlier work.
The conditions of data set [6]: cited from earlier work. This is another data set of the same source.
A short description of data set [7]: Literature clinical pharmacokinetics of sunitinib. Particulars: follows from half-life ~50 h.
The mark [8] stands for this setting: final population PK model, cancer patients.
The mark [9] stands for this setting: human, plasma, oral, sunitinib with grapefruit juice when simultaneously taken, mean (range).
The mark [10] stands for this setting: sunitinib with grapefruit juice when simultaneously taken, mean (range).

Each structure is given as a SMILES string. Like-named read-outs stand apart in the source and are kept apart here.

`Cc1ncc2n1-c1ccc(Cl)cc1C(c1ccccc1F)=NC2` [midazolam] showed an exposure AUC(0-t) in data set [1] (human, plasma, po, 7.5 mg, Midazolam AUC0–24 h, without GJ, single oral 7.5 mg midazolam, mean (±SEM)) of 122 ng·h/mL. In addition, the “Increase of midazolam exposure (AUC0–24 h) by GJ” value in data set [1] (second vs first PK day) is ~ 50%.

For `Cc1cn(-c2cc(NC(=O)c3ccc(C)c(Nc4nccc(-c5cccnc5)n4)c3)cc(C(F)(F)F)c2)cn1` [nilotinib], the “Effect of grapefruit juice on drug exposure” value in [2] is recorded as “increase”.

In the case of `CCN(CC)CCNC(=O)c1c(C)[nH]c(/C=C2\C(=O)Nc3ccc(F)cc32)c1C` [sunitinib, Sunitinib malate], the “Increase of sunitinib exposure by grapefruit juice” value (from here on “Increase of sunitinib exposure”) in [3] (GJ consumed 7 h before the sunitinib dose) is ~ 8.9%. In [3] (setting [8]), the “Absorption lag time, estimate” value is 0.487 h and the “ka (absorption rate constant), estimate” value was 0.468 h⁻¹. In data set [3] (final population PK model, cancer patients, oral sunitinib 25-50 mg once daily), the “Cl/F (apparent clearance), estimate” value is given as 50.5 L/h. In data set [3] (human, plasma, oral), the Tmax stood at 8.2 h, the Vd/F was determined as 3210 L and the half-life was 53 h. In data set [3] (setting [9]), the area under the curve AUC(0-t) came to 1240 ng·h/mL and the Cmax was 14.4 ng/mL. Also, the AUC(0-t) in data set [3] (human, plasma, oral, sunitinib without grapefruit juice, steady state, mean (range)) turned out to be 1120 ng·h/mL. In [3] (human, plasma, oral, sunitinib without grapefruit juice, mean (range)), this compound came in with a peak concentration (Cmax) of 13 ng/mL. The “Increase of sunitinib exposure” value in data set [3] (sunitinib 24 h after last GJ consumption) was ~ 5.3%. Moreover, the “Increase of sunitinib exposure” value in data set [3] (sunitinib 72 h after last GJ consumption) is reported as ~ 1.3%. In addition, in [3] (sunitinib started 1 week after last GJ consumption), the “Increase of sunitinib exposure” value was ~ 0.07%. For the same compound, in [3] (setting [10]), the T max is recorded as 8.2 (2.8–12.4) h and the “t 1/2 (elimination half-life)” value is recorded as 53 (12–107) h. Further, in data set [4], the “Apparent volume of distribution” value was ~ 2,000 liters, the “Effect of food intake on pharmacokinetics” value is “does not affect”, the “Interpatient variability in sunitinib clearance” value is ~ 40% and the half-life is ~ 50 h. The “Substrate of drug transporter ABCG2” value in the data set with ABCG2 is “moderate substrate”. The “Substrate of drug transporter ABCB1” value with ABCB1 is listed as “moderate substrate”. For the same compound, the “Affinity for OATPs” value in data set [5] is “no affinity”. In addition, in data set [6], the “Protein binding in vitro” value is recorded as “extensively protein bound”. The “Time to reach steady-state PK” value in data set [7] is reported as ~ 8 days.

A word on the AUC(0-t): it is the area under the concentration-time curve up to a stated or last time point. High values mean more exposure, low ones less exposure. One may read the Tmax as the time from dosing to the highest level. One may read the Vd/F as the apparent distribution volume after extravascular dosing. Usually half-life stands for the time in which the quantity being followed falls by half. What is called Cmax is the highest concentration seen after dosing.

Values taken from paper PMC3043256 (Cancer Chemotherapy and Pharmacology, 2010).
